Laboratory results published in paper PMC8540442, “KBE009: A Bestatin-Like Inhibitor of the Trypanosoma cruzi Acidic M17 Aminopeptidase with In Vitro Anti-Trypanosomal Activity” (Life, 2021).

Molecular target: T1, TcLAP (T. cruzi acidic M17 leucyl-aminopeptidase; LAPTc) (Trypanosoma cruzi, UniProt Q4DZJ3)
T1 construct: gene Tc00.1047053508799.240; recombinant TcLAP (rTcLAP)
T1 sequence (Q4DZJ3 1-520): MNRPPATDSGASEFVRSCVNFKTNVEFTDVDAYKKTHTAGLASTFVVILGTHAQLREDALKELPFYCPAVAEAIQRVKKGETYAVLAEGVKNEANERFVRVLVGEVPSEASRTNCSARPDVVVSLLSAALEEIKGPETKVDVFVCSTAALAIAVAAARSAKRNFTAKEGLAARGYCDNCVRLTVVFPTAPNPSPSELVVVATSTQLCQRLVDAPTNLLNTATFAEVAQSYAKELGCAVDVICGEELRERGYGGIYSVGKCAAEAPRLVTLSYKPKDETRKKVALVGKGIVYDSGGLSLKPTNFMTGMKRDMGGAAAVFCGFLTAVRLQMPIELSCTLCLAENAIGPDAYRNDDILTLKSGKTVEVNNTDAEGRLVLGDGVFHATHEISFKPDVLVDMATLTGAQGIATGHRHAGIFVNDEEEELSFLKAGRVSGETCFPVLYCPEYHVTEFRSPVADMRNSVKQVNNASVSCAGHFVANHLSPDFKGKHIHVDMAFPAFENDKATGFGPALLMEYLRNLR
Experiment: continuous chromogenic assay of purified rTcLAP with Leu-pNA at […] nm, […] min preincubation
Assay type: biochemical

IC50: 66 ± 13.5 µM
SMILES: CC(C)C[C@@H](C(=O)O)N(C(=O)[C@H](N)Cc1ccccc1)C(C(=O)NCc1ccccc1)c1ccco1 (stereo partly shown) [KBE009]
